Results: US11370794B2, “Toll-like receptor antagonist compounds and methods of use” (Dynavax Technologies Corporation, priority 2016, dated 2022)

Key:
human TLR8 = target: T1, human TLR8 (Homo sapiens, UniProt Q9NR97); experiment: Inhibition of human TLR8 in human monocytes (TNF-alpha / IL-1 beta ELISA); type: cell-based; conditions: human monocytes, agonist ORN8L 100 μg/mL, TNF-alpha readout, 24 hours; read-out: Human TLR8 IC50 TNF-a
T1 construct: endogenous in cells; host or cells: primary human monocytes (CD14 microbeads) from buffy coats of healthy donors
T1 sequence (Q9NR97 27-1041): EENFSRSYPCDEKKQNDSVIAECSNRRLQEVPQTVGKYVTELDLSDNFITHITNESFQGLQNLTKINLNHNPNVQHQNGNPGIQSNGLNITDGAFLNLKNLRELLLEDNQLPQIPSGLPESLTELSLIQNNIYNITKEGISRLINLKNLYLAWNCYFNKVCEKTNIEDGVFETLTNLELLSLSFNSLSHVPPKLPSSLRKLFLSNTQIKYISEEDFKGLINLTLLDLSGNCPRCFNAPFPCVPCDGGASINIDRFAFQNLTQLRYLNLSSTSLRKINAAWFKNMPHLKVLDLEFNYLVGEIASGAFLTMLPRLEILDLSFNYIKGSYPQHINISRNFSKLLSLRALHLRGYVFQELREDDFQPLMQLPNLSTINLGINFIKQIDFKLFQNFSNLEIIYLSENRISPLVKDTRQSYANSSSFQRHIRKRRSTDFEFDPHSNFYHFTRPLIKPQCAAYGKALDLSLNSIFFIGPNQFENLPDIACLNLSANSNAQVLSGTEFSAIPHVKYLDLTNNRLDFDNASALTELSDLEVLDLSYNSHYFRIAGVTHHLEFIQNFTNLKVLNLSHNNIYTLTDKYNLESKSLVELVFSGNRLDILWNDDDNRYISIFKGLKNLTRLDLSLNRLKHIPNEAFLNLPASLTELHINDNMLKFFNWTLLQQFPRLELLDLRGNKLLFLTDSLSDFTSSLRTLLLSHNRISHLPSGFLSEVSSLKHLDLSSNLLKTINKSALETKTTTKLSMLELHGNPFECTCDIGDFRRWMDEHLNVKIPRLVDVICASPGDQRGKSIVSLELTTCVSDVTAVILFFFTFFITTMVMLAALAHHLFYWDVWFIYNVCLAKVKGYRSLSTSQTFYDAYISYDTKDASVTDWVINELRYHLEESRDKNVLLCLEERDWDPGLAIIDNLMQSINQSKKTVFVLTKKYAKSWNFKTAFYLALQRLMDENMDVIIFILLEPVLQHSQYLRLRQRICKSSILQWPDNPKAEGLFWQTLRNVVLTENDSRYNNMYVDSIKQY
Summary of the method: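 Primary human monocytes from donor buffy coats (~200,000 cells/well) given serially diluted compound, then ORN8L RNA oligonucleotide agonist at 100 μg/mL final. After 24 h at 37 °C, supernatant TNF-alpha and/or IL-1 beta measured by ELISA; IC50 from the concentration-response of cytokine release.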

human TLR9 = target: T2, human TLR9 (Homo sapiens, UniProt Q9NR96); experiment: Inhibition of human TLR9 in human B cells (IL-6 ELISA); type: cell-based; conditions: human B cells, agonist 1018 ISS 1 μM, IL-6 readout, 48 hours; range about 0.01 to 10 μM; read-out: Human TLR9 IC50
T2 construct: endogenous in cells; host or cells: primary human B cells (CD19 microbeads) from buffy coats of healthy donors
T2 sequence (Q9NR96 26-1032): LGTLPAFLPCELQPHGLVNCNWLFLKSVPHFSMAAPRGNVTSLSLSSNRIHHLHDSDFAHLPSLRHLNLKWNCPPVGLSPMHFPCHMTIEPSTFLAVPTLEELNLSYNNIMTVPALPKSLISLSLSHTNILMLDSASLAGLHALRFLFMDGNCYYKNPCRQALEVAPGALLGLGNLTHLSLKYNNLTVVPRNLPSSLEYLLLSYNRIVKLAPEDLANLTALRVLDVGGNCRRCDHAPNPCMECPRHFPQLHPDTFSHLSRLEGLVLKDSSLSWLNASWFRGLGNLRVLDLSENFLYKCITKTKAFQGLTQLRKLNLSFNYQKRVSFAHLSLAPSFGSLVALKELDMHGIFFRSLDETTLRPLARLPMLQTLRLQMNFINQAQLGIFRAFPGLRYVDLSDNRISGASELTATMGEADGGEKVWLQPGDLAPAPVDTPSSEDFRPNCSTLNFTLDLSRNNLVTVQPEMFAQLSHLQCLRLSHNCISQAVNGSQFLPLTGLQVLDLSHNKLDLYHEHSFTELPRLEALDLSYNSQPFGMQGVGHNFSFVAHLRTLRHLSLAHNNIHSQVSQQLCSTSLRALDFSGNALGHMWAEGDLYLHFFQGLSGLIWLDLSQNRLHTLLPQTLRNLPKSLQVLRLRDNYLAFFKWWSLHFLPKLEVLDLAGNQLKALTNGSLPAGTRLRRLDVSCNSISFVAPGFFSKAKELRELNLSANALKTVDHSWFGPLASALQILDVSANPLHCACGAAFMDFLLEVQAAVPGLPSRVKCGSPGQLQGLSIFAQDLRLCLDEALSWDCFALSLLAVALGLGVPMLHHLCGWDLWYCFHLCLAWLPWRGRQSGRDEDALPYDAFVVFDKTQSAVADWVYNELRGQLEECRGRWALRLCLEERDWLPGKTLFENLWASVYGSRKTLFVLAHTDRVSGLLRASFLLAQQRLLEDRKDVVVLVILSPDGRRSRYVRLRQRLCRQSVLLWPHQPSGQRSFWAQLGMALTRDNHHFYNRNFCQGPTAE
Summary of the method: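 Primary human B cells (CD19-isolated from donor buffy coats), ~300,000 per well, treated with compound (about 0.01–10 μM, some 0.001–30 μM) then 1 μM CpG oligonucleotide 1018 ISS. After 48 hours at 37° C, supernatant IL-6 measured by ELISA; IC50 from concentration-response of TLR9-dependent activity.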

| IC50 (human TLR8) [µM] | IC50 (human TLR9) [µM] | SMILES |
| --- | --- | --- |
| ≥ 20 | 0.588 | Cc1ccc(-n2nc3c(N4CCC(C(=O)N5CC6CNCC6C5)CC4)nnc(C)c3c2C)cc1 (stereo not shown) [compound 71, (1-(3,4-dimethyl-2-(p-tolyl)-2H-pyrazolo[3,4-d]pyridazin-7-yl)piperidin-4-yl) (hexahydropyrrolo[3,4-c]pyrrol-2(1H)-yl)methanone] |
| 9.17 | 0.012 | Cc1ccc(-n2nc3c(N4CCC(C(=O)N5CC6CN(C)CC6C5)CC4)nnc(C)c3c2C)cc1 (stereo not shown) [compound 72, (1-(3,4-dimethyl-2-(p-tolyl)-2H-pyrazolo[3,4-d]pyridazin-7-yl)piperidin-4-yl)(5-methylhexahydropyrrolo[3,4-c]pyrrol-2(1H)-yl)methano] |
| ≥ 20 | 1.14 | Cc1ccc(-n2nc3c(N4CCC(C(=O)N5CCC6(CC5)CNC6)CC4)nnc(C)c3c2C)cc1 [compound 73, (1-(3,4-dimethyl-2-(p-tolyl)-2H-pyrazolo[3,4-d]pyridazin-7-yl)piperidin-4-yl)(2,7-diazaspiro[3.5]nonan-7-yl)methanone] |
| ≥ 20 | 2.59 | Cc1ccc(-n2nc3c(N4CCC(C(=O)N5CCC6(CNC6)C5)CC4)nnc(C)c3c2C)cc1 [compound 74, (1-(3,4-dimethyl-2-(p-tolyl)-2H-pyrazolo[3,4-d]pyridazin-7-yl)piperidin-4-yl)(2,6-diazaspiro[3.4]octan-6-yl)methanone] |
| ≥ 20 | 0.025 | Cc1ccc(-n2nc3c(N4CCC(C(=O)N5CCC6(CN(C)C6)C5)CC4)nnc(C)c3c2C)cc1 [compound 75, (1-(3,4-dimethyl-2-(p-tolyl)-2H-pyrazolo[3,4-d]pyridazin-7-yl)piperidin-4-yl)(2-methyl-2,6-diazaspiro[3.4]octan-6-yl)methanone] |
